In patent US7879881B2, “Piperidinyl compounds that selectively bind integrins” (Janssen Pharmaceutica NV, priority 2002, dated 2011):
Where two headings read alike, the source gives them in different places.

How the values were obtained:
human purified αVβ5 = target: T1, human purified αVβ5 (Homo sapiens, UniProt P06756+P18084); assay: In Vitro Solid Phase Purified αcβ5 Binding Assay (vitronectin/αVβ5); conditions: vitronectin binding to immobilized purified human αVβ5, mean ± spread
T1 construct: purchased Chemicon International, Inc
Protocol: (§1) Human αvβ3 (Chemicon International Inc., Temecula, Calif.), at a concentration of 1 μg/ml dissolved in Tris buffer (20 mM Tris, 1 mM CaCl2, 1 mM MgCl2, 10 μM MnCl2, 150 mM NaCl), was immobilized on Immulon 96 well plates (Dynex Technologies, Chantilly, Va.) overnight at 4° C. Plates were washed and treated with blocking buffer (3% BSA in Tris buffer) for 2 h at 37° C. Plates were then rinsed 2 times with assay buffer comprised of Tris buffer. Synthesized compounds were added to wells in duplicate immediately prior to the addition of 2 nM vitronectin (Sigma, St. Louis, Mo.). Following a 3 hour incubation at 37° C., plates were washed 5 times in assay buffer. An anti-human vitronectin IgG rabbit polyclonal antibody (Calbiochem, San Diego, Calif.) was added (1:2000) and plates were incubated for 1 hour at room temperature. VectaStain ABC peroxidase kit reagents (Vector Laboratories, Burlingame, Calif.) employing a biotin labeled anti-rabbit IgG, were utilized for detection of bound antibody. Plates were read at 490 nm on a Molecular Devices (Sunnyvale, Calif.) microplate reader.
In Vitro Solid Phase Purified αcβ5 Binding Assay
All other aspects of the assay including buffers, reagents and incubation times remain unchanged.

Human αvβ3 = target: T2, Human αvβ3 (Homo sapiens, UniProt P05106+P06756); assay: In Vitro Solid Phase Purified αvβ3 Binding Assay (vitronectin/αvβ3); conditions: vitronectin binding to immobilized purified human αvβ3, mean ± spread
T2 construct: purchased Chemicon International Inc., Temecula, Calif
Protocol: In Vitro Solid Phase Purified αvβ3 Binding Assay
as §1

GP IIb/IIIa = GP IIb/IIIa (Homo sapiens, UniProt P05106+P08514); assay: In Vitro Solid Phase Purified GP IIb/IIIa Binding Assay (biotinylated fibrinogen); conditions: biotinylated fibrinogen binding to immobilized purified GP IIb/IIIa, mean ± spread
Protocol: In Vitro Solid Phase Purified GP IIb/IIIa Binding Assay
The plate was covered and incubated overnight at 4° C. The GP IIb/IIIa solution was discarded and 150 μL of 5% BSA was added and incubated at RT for 1-3 h. The plate was washed extensively with modified Tyrodes buffer. Biotinylated fibrinogen (25 μL/well) at 2× final concentration was added to the wells that contain the test compounds (25 μL/well). The plate was covered and incubated at RT for 2-4 h. Twenty minutes prior to incubation completion, one drop of Reagent A (VectaStain ABC Horseradish Peroxidase kit, Vector Laboratories, Inc.) and one drop Reagent B were added with mixing to 5 mL modified Tyrodes buffer mix and let stand. The ligand solution was discarded and the plate washed (5×200 μL/well) with modified Tyrodes buffer. […] The Vecta Stain solution was discarded and the wells washed (5×200 μL/well) with modified Tyrodes buffer. Developing buffer (10 mL of 50 mM citrate/phosphate buffer @ pH 5.3, 6 mg o-phenylenediamine, 6 μL 30% H2O2; 50 μL/well) was added and incubated at RT for 3-5 min and then 2 N H2SO4 (50 μL/well) was added.

GP IIb/IIIa, sequence (P08514 32-887 limits assumed): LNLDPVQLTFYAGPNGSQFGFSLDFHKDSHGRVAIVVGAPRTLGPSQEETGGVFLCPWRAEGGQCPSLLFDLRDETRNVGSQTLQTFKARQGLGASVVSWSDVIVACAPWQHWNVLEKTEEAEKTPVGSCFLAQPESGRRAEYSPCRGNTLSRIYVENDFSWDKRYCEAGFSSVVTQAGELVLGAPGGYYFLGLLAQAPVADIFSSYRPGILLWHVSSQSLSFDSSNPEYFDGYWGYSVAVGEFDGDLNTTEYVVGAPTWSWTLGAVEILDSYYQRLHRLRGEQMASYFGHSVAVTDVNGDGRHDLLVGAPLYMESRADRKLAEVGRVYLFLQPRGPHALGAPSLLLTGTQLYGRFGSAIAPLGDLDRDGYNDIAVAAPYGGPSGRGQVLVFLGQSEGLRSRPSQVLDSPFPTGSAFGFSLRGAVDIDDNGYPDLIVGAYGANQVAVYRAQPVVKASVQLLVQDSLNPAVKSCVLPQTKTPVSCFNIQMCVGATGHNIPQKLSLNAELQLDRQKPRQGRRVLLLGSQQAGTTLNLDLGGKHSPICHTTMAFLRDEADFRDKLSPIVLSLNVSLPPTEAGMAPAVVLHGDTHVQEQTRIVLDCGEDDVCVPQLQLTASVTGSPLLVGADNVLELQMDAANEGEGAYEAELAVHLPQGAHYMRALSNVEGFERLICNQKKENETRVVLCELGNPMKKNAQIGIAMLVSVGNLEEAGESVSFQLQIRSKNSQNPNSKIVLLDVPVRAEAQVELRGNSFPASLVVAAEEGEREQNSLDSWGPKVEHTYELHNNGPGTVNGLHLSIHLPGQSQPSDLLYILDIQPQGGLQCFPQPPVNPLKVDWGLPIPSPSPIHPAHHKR
GP IIb/IIIa, sequence (P08514 891-1039 partner limits assumed): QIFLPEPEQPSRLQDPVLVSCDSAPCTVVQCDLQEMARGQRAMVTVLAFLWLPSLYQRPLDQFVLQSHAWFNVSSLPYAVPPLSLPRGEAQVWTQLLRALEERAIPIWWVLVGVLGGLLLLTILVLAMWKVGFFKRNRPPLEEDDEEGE
GP IIb/IIIa, sequence (P05106 27-788): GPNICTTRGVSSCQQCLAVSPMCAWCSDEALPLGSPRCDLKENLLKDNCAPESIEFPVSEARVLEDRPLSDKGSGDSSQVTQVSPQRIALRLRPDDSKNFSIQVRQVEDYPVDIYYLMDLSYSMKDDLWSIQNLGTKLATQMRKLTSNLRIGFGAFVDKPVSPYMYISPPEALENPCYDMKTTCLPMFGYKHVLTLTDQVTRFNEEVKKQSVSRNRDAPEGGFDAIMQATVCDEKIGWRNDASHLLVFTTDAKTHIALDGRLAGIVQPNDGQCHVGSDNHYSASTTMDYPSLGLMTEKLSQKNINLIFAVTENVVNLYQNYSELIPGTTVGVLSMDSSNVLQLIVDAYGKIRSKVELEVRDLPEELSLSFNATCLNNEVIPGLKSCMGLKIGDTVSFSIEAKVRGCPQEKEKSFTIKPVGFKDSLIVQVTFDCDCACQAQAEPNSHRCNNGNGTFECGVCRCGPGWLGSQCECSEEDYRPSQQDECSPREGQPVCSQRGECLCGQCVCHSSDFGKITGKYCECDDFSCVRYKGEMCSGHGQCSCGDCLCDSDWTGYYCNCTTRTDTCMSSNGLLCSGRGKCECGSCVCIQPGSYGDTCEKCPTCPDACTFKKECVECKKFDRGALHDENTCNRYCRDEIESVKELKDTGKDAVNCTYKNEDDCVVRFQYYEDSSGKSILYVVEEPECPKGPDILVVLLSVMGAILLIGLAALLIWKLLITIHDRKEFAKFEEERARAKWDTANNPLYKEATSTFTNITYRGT
T1 sequence (P06756 31-889 limits assumed): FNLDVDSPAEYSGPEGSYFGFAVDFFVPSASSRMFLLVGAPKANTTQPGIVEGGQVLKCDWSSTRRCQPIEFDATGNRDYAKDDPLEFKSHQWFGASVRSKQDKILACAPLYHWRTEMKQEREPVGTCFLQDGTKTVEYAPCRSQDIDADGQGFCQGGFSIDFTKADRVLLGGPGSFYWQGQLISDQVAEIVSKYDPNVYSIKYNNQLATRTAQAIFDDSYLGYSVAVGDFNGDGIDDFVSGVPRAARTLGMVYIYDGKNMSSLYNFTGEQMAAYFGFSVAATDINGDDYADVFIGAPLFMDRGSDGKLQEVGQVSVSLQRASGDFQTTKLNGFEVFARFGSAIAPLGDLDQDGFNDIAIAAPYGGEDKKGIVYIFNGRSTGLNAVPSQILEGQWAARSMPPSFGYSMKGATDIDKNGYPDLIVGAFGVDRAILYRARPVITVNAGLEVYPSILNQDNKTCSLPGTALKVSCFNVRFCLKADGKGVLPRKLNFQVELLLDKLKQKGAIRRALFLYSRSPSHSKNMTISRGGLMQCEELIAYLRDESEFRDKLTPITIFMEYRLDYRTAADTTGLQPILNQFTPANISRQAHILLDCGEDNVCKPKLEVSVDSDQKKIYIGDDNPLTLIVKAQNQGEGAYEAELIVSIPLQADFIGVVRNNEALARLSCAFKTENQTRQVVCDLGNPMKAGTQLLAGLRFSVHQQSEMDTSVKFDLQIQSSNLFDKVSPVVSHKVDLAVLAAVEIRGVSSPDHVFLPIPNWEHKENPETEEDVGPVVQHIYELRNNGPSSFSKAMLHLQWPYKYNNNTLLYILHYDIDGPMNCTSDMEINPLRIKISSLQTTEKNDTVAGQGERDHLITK
T1 sequence (P06756 891-1048 partner limits assumed): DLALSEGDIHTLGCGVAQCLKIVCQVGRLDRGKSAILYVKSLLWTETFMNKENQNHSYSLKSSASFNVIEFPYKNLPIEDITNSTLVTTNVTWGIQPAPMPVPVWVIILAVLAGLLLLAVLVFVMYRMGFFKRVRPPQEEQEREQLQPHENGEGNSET
T1 sequence (P18084 24-799): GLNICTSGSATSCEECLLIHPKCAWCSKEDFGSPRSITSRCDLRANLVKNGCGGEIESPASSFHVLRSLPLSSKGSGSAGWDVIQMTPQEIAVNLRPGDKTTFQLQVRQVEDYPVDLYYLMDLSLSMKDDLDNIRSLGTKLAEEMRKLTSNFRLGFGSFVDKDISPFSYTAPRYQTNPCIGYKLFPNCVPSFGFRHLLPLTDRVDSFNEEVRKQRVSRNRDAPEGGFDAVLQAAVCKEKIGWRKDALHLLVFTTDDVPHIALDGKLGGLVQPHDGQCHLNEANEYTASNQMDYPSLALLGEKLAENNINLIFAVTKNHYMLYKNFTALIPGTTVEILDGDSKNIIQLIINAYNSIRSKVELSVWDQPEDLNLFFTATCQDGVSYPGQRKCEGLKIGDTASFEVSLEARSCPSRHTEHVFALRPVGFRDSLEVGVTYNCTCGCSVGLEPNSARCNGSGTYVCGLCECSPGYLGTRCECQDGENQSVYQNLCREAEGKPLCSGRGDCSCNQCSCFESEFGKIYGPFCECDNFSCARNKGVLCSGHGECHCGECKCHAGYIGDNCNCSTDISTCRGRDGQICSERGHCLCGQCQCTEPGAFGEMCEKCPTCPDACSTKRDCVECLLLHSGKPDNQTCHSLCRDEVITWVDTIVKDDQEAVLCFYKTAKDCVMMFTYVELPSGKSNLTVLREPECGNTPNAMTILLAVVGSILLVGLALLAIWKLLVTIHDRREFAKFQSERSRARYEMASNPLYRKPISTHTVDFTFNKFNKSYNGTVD
T2 sequence (P06756 31-889 limits assumed): as the sequence (P06756 31-889 limits assumed) above
T2 sequence (P06756 891-1048 partner limits assumed): as the sequence (P06756 891-1048 partner limits assumed) above
T2 sequence (P05106 27-788): as the sequence (P05106 27-788) above

| IC50 (human purified αVβ5; read-out: αvβ5 IC50) [µM] | IC50 (Human αvβ3; read-out: αvβ3IC50) [µM] | IC50 (GP IIb/IIIa; read-out: αIIbβ3 IC50) [µM] | Structure (SMILES) | IC50 (GP IIb/IIIa; αIIbβ3 IC50 (uM)) [µM] | IC50 (human purified αVβ5; αvβ5 IC50 (uM)) [µM] | IC50 (Human αvβ3; αvβ3IC50 (uM)) [µM] |
| --- | --- | --- | --- | --- | --- | --- |
| 0.28 | 0.405 | 1.97 | COc1ccc(C(CCC2CCN(C(=O)CCc3ccc4c(n3)NCCC4)CC2)CC(=O)O)cn1 (single isomer, unassigned) [Cpd 21b, 6-methoxy-β-[2-[1-[1-oxo-3-(5,6,7,8-tetrahydro-1,8-naphthyridin-2-yl)propyl]-4-piperidinyl]ethyl]-3-pyridinepropanoic acid] | – | – | – |
| 0.0019 ± 0.0004 | 0.0004 ± 0.0002 | 2.93 ± 1.86 | O=C(O)CC(CC1CCN(C(=O)CCc2ccc3c(n2)NCCC3)CC1)c1cccc(F)c1 (single isomer, unassigned) [Cpd 30a, β-(3-fluorophenyl)-1-[1-oxo-3-(5,6,7,8-tetrahydro-1,8-naphthyridin-2-yl)propyl]-4-piperidinebutanoic acid] | – | – | – |
| 0.0482 ± 0.0028 | 0.0317 ± 0.0147 | > 50 | O=C(O)CC(CC1CCN(C(=O)CCc2ccc3c(n2)NCCC3)CC1)c1cccc(F)c1 (single isomer, unassigned) [Cpd 30b, β-(3-fluorophenyl)-1-[1-oxo-3-(5,6,7,8-tetrahydro-1,8-naphthyridin-2-yl)propyl]-4-piperidinebutanoic acid] | – | – | – |
| 0.0009 ± 0.0006 | 0.0004 | 0.79 ± 0.05 | O=C(O)CC(CC1CCN(C(=O)CCc2ccc3c(n2)NCCC3)CC1)c1ccc2c(c1)OCC2 (single isomer, unassigned) [Cpd 36a, 3-(2,3-Dihydro-benzofuran-6-yl)-4-[1-(3-5,6,7,8-tetrahydro-[1,8]naphthyridin-2-yl-propionyl)-piperidin-4-yl]-butyric acid] | – | – | – |
| 0.129 | 0.084 | > 50 | O=C(O)CC(CC1CCN(C(=O)CCc2ccc3c(n2)NCCC3)CC1)c1ccc2c(c1)OCC2 (single isomer, unassigned) [Cpd 36b, 3-(2,3-Dihydro-benzofuran-6-yl)-4-[1-(3-5,6,7,8-tetrahydro-[1,8]naphthyridin-2-yl-propionyl)-piperidin-4-yl]-butyric acid] | – | – | – |
| 0.0265 ± 0.0034 | 0.0005 ± 0.0002 | 14.7 | O=C(O)CC(CC1CCN(C(=O)CCc2ccc3c(n2)NCCC3)CC1)c1ccc2ccccc2c1 (single isomer, unassigned) [Cpd 56a, 3-Naphthalen-2-yl-4-[1-(3-5,6,7,8-tetrahydro-[1,8]naphthyridin-2-yl-propionyl)-piperidin-4-yl]-butyric acid] | – | – | – |
| 0.0323 ± 0.0082 | 0.0004 ± 0.0003 | 1.44 ± 0.39 | O=C(O)CC(c1cnc2c(c1)CCCC2)C1CCN(C(=O)CCCc2ccc3c(n2)NCCC3)CC1 (single isomer, unassigned) [Cpd 58a, 5,6,7,8-Tetrahydro-β-[1-[1-oxo-4-(5,6,7,8-tetrahydro-1,8-naphthyridin-2-yl)butyl]-4-piperidinyl]-3-quinolinepropanoic acid] | – | – | – |
| 0.576 ± 0.149 | 0.083 ± 0.02 | 35.5 | O=C(O)CC(c1cnc2c(c1)CCCC2)C1CCN(C(=O)CCCc2ccc3c(n2)NCCC3)CC1 (single isomer, unassigned) [Cpd 58b, 5,6,7,8-Tetrahydro-β-[1-[1-oxo-4-(5,6,7,8-tetrahydro-1,8-naphthyridin-2-yl)butyl]-4-piperidinyl]-3-quinolinepropanoic acid] | – | – | – |
| > 5 | 0.056 ± 0.007 | 4.33 ± 0.15 | O=C(O)CCC1CCN(C(=O)Cc2cccc(NC3=NCCCN3)c2)CC1 [Cpd 1, 1-[[3-[(1,4,5,6-Tetrahydro-2-pyrimidinyl)amino]phenyl]acetyl]-4-piperidinepropanoic acid] | – | – | – |
| 2.5 | 0.0036 ± 0.0004 | 0.21 | O=C(O)CC(c1cnc2ccccc2c1)C1CCN(C(=O)Cc2cccc(NC3=NCC(O)CN3)c2)CC1 (stereo not drawn) [Cpd 3, β-[1-[[3-[(1,4,5,6-Tetrahydro-5-hydroxy-2-pyrimidinyl)amino]phenyl]acetyl]-4-piperidinyl]-3-quinolinepropanoic acid] | – | – | – |
| – | – | – | O=C(O)CC(c1cnc2ccccc2c1)C1CCN(C(=O)CCCc2ccc3c(n2)NCCC3)CC1 (stereo not drawn) [Cpd 4, β-[1-[1-Oxo-4-(5,6,7,8-tetrahydro-1,8-naphthyridin-2-yl)butyl]-4-piperidinyl]-3-quinolinepropanoic acid] | 0.87 ± 0.19 | 0.0355 ± 0.0089 | 0.0005 ± 0.0001 |
| – | – | – | O=C(O)CC(C1CCN(C(=O)CCCc2ccc3c(n2)NCCC3)CC1)C1CNc2ccccc2C1 (stereo not drawn) [Cpd 5, 1,2,3,4-Tetrahydro-β-[1-[1-oxo-4-(5,6,7,8-tetrahydro-1,8-naphthyridin-2-yl)butyl]-4-piperidinyl]-3-quinolinepropanoic acid] | 14.8 ± 0.68 | 0.261 ± 0.0569 | 0.0037 ± 0.0014 |
| 0.54 | 0.0076 ± 0.0021 | 1.62 ± 0.05 | O=C(O)CC(CCC1CCN(C(=O)c2cccc(NC3=NCCCN3)c2)CC1)c1cccnc1 (stereo not drawn) [Cpd 6, β-[2-[1-[3-[(1,4,5,6-Tetrahydro-2-pyrimidinyl)amino]benzoyl]-4-piperidinyl]ethyl]-3-pyridinepropanoic acid] | – | – | – |
| 0.0395 ± 0.0085 | 0.0082 ± 0.0014 | 1.67 ± 0.74 | O=C(O)CC(CCC1CCN(C(=O)c2cccc(NC3=NCC(O)CN3)c2)CC1)c1cccnc1 (stereo not drawn) [Cpd 7, β-[2-[1-[3-[(1,4,5,6-Tetrahydro-5-hydroxy-2-pyrimidinyl)amino]benzoyl]-4-piperidinyl]ethyl]-3-pyridinepropanoic acid] | – | – | – |
| 0.253 | 0.0179 ± 0.0034 | 1.36 ± 0.43 | O=C(O)CC(CCC1CCN(C(=O)CCc2ccc3c(n2)NCCC3)CC1)c1cccnc1 (stereo not drawn) [Cpd 8, β-[2-[1-[1-Oxo-3-(5,6,7,8-tetrahydro-1,8-naphthyridin-2-yl)propyl]-4-piperidinyl]ethyl]-3-pyridinepropanoic acid] | – | – | – |
| 0.0335 ± 0.0075 | 0.0024 ± 0.0013 | 1.67 | COc1ccc(C(CCC2CCN(C(=O)c3cccc(NC4=NCC(O)CN4)c3)CC2)CC(=O)O)cn1 (stereo not drawn) [Cpd 10, 6-Methoxy-β-[2-[1-[3-[(1,4,5,6-tetrahydro-5-hydroxy-2-pyrimidinyl)amino]benzoyl]-4-piperidinyl]ethyl]-3-pyridinepropanoic acid] | – | – | – |
| 0.0023 ± 0.0009 | 0.0011 ± 0.0002 | 2.52 ± 0.3 | O=C(O)CC(CC1CCN(C(=O)CCc2ccc3c(n2)NCCC3)CC1)c1ccc2c(c1)OCO2 (stereo not drawn) [Cpd 11, β-(1,3-Benzodioxol-5-yl)-1-[1-oxo-3-(5,6,7,8-tetrahydro-1,8-naphthyridin-2-yl)propyl]-4-piperidinebutanoic acid] | – | – | – |
| 0.078 ± 0.017 | 0.0042 ± 0.0014 | 0.136 ± 0.003 | O=C(O)CC(CCC1CCN(C(=O)c2cccc(NC3=NCCCN3)c2)CC1)c1cnc2ccccc2c1 (stereo not drawn) [Cpd 12, β-[2-[1-[3-[(1,4,5,6-Tetrahydro-2-pyrimidinyl)amino]benzoyl]-4-piperidinyl]ethyl]-3-quinolinepropanoic acid] | – | – | – |
| 0.036 ± 0.0133 | 0.0032 ± 0.0006 | 11.1 ± 3.4 | O=C(O)CC(CC1CCN(C(=O)CCc2ccc3c(n2)NCCC3)CC1)c1ccccc1 (stereo not drawn) [Cpd 13, 1-[1-oxo-3-(5,6,7,8-tetrahydro-1,8-naphthyridin-2-yl)propyl]-β-phenyl-4-piperidinebutanoic acid] | – | – | – |

| Structure (SMILES) | IC50 (human purified αVβ5; read-out: αvβ5 IC50) [µM] | IC50 (Human αvβ3; read-out: αvβ3IC50) [µM] | IC50 (GP IIb/IIIa; read-out: αIIbβ3 IC50) [µM] | IC50 (GP IIb/IIIa; αIIbβ3 IC50 (uM)) [µM] | IC50 (human purified αVβ5; αvβ5 IC50 (uM)) [µM] | IC50 (Human αvβ3; αvβ3IC50 (uM)) [µM] |
| --- | --- | --- | --- | --- | --- | --- |
| COc1ccc(C(CC(=O)O)CC2CCN(C(=O)CCc3ccc4c(n3)NCCC4)CC2)cn1 (single isomer, unassigned) [Cpd 28a, 6-methoxy-β-[[1-[1-oxo-3-(5,6,7,8-tetrahydro-1,8-naphthyridin-2-yl)propyl]-4-piperidinyl]methyl]-3-pyridinepropanoic acid] | 0.0042 ± 0.0018 | 0.0003 ± 0.0002 | – | 1.83 ± 0.57 | – | – |
| COc1ccc(C(CC(=O)O)CC2CCN(C(=O)CCc3ccc4c(n3)NCCC4)CC2)cn1 (single isomer, unassigned) [Cpd 28b, 6-methoxy-β-[[1-[1-oxo-3-(5,6,7,8-tetrahydro-1,8-naphthyridin-2-yl)propyl]-4-piperidinyl]methyl]-3-pyridinepropanoic acid] | 0.126 ± 0.0448 | 0.0208 ± 0.0053 | 24.3 | – | – | – |
